Assay results reported in article PMC3920720, “Triterpenes and Steroids from Euphorbia denticulata Lam. With Anti-Herpes Symplex Virus Activity” (Iranian Journal of Pharmaceutical Research : IJPR, 2013).
In brackets after ≈: the same amount, converted by molar mass. Where two headings read alike, the source gives them in different places.

Experiments:
[1] = Cytotoxicity assay (MTS) on Vero cells; type: cell-based, African green monkey; settings: African green monkey
Method: (§1) For cytotoxicity and antiviral assays cells were grown in Dulbeccoʼs Modified Eagleʼs growth Medium ( DMEM; Sigma, USA) supplemented with 2% of fetal bovine serum (FBS; Gibco, Germany), 100 μg/mL of streptomycin, 100 UI/mL of penicillin and 0.25 μg/mL amphotericin B ( Gibco, Germany) and 0.14% (v/v) sodium bicarbonate. All the cells were cultured at 37°C in a humidified atmosphere supplied with 5% CO2.
(§2) The Vero cells were seeded onto a 96-well plate at a concentration of 3.5×10^5 Vero cells per mL and a volume of 100 μL per well. Following 24 h incubation at 37 °C, a confluent cell monolayer was confirmed and cell media was removed. Test compounds were serially diluted with the culture medium supplemented with 2% serum to reach the different concentrations. Negative control dilution of DMSO at 0.1 % was also included. An aliquot of 100 μL/well of each diluted compound or DMSO was added to the plates in triplicate. After incubation at 37 °C with 5% CO2 for 3 days, MTS (Cell Titer 96; Promega, USA) was added to each well with a volume of 20 μL. The trays were further incubated for 2 h to allow MTS production. The absorbances were determined with an ELISA reader (Stata Fax 2100, USA) at a test wavelength of 490 nm. Data were calculated as the percentage of inhibition using the following formula: inhibition % =[100 – ( At/ As) × 100]%. At and As refer to the absorbances of the test substances and the solvent control, respectively. CC50 values, defined as the concentration of 50% cellular cytotoxicity (CC50) of test compounds ([7], [8]).

HSV-1 [2] = assay: Antiviral assay using MTS method (HSV-1 infected Vero cells); type: cell-based, Herpes simplex virus type 1 (HSV-1, strain KOS); settings: for Selectivity index (SI) = CC50/EC50: HSV-1, CC50 on Vero cells / EC50; for EC50: read-out: EC50 ±SEM (concentration producing 50% inhibition of virus induced cytopathic effects)
Vero cells = assay: Cytotoxicity assay (MTS) on Vero cells; type: cell-based, African green monkey; settings: Vero cells, MTS, 3 days incubation, n=3
Method: as §1, §2

HSV-1 [3] = assay: Time-course anti-virus analysis (MTS, addition pre-, co- or post-infection); type: cell-based, Herpes simplex virus type 1 (HSV-1, strain KOS); settings: post-infection; 1, 10, 100 μg/mL; added 1 h before to 24 h after infection; MTS after 3 days
Method: Different non-cytotoxic concentrations (≤ CC50 values) of test compounds were added to culture cells in triplicate at different times pre-infection or post-infection. HSV-1(10 TCID50 per well) was inoculated onto confluent monolayers of Vero cells for 2 h. After 3 days, MTS test and antiviral activity were carried out as previously described ([3]).
Inhibition was evaluated by MTS assay after 3 days of infection and expressed as percentage inhibition.
Figure 3 Inhibitory effect of test compounds at different concentrations (1, 10, 100 μg/mL) at various times pre-infection , co-infection and post-infection of herpesvirus (HSV-1) to Vero cells. a) betulin, and b) (3β,23E)-Cycloarta-23-ene-3,25-diol were added with the HSV-1 infected Vero cells at various times period like pre-infection (− 1 h), co-infection (0 h) or post-infection( 2-24 h). After 3 days of incubation at 37°C, inhibition was evaluated by MTS assay and expressed as the inhibition percentage. Each point represents the mean of three independent experiments

[4] = CC50 ±SEM (50% cytotoxic concentration on vero cells)
[5] = Human alphaherpesvirus 1, Vero, 72 h

SMILES: Nc1nc2c(ncn2COCCO)c(=O)[nH]1 [Acyclovir, reference compound]
- CC50 at 3 days [1, 4]: 128 ± 0.215 µg/mL (≈ 568 µM)
- Selectivity index (SI) = CC50/EC50 (HSV-1 [2]): 42.66
- EC50 (HSV-1 [2]; Human alphaherpesvirus 1, 72 h, HSV-1 in Vero cells, MTS, 3 days, three separate experiments): 3 µg/mL (≈ 13.3 µM)

SMILES: C=C(C)[C@@H]1CC[C@]2(CO)CC[C@]3(C)[C@H](CC[C@@H]4[C@@]5(C)CC[C@H](O)C(C)(C)[C@@H]5CC[C@]43C)[C@@H]12 [Betulin, lup-20(29)-ene-3β,28-diol]
- CC50 ±SEM (50% cytotoxic concentration on vero cells) (Vero cells): 660.72 ± 0.072 µg/mL (≈ 1490 µM)
- CC50 at 3 days ([1]; Vero cells, MTS, 3 days incubation, n=3, read-out: CC50 ±SEM (50% cytotoxic concentration on vero cells)): 660.72 ± 0.072 µg/mL (≈ 1490 µM)
- Time of compound addition giving the highest inhibition against HSV-1 infection (HSV-1 [3]): ≤ 2.0 h
- Selectivity index (SI) = CC50/EC50 (HSV-1 [2]): 7.83
- Selectivity index (SI) = CC50/EC50 (HSV-1 [2]; listed as betulin): 7.831
- EC50 (HSV-1 [2]; [5]): 84.37 ± 0.018 µg/mL (≈ 191 µM)

SMILES: C[C@H](C/C=C/C(C)(C)O)[C@H]1CC[C@@]2(C)C3CCC4C(C)(C)[C@@H](O)CC[C@@]45C[C@@]35CC[C@]12C (stereo partly drawn) [(3β,23E)-Cycloarta-23-ene-3,25-diol, Cycloart-23E-ene-3β,25-diol]
- CC50 at 3 days [1, 4]: 1089.2 ± 0.25 µg/mL (≈ 2460 µM)
- Time of compound addition giving the highest inhibition against HSV-1 infection (HSV-1 [3]): ≤ 2.0 h
- Selectivity index (SI) = CC50/EC50 (HSV-1 [2]): 12.57
- EC50 (HSV-1 [2]; [5]): 86.63 ± 0.03 µg/mL (≈ 196 µM)
